What follows are molecules tested against T1, cynomolgus BK1-receptor (Macaca fascicularis, UniProt Q3BCU0) (assay: cynoBK1-receptor binding assay). Settings: CHO cells expressing cynomolgus BK1-receptor, radioligand kallidine (DesArg10,Leu9).
T1 construct: expressed in transfected cells; host or cells: CHO cells (homogenate)
T1 sequence (Q3BCU0 1-352): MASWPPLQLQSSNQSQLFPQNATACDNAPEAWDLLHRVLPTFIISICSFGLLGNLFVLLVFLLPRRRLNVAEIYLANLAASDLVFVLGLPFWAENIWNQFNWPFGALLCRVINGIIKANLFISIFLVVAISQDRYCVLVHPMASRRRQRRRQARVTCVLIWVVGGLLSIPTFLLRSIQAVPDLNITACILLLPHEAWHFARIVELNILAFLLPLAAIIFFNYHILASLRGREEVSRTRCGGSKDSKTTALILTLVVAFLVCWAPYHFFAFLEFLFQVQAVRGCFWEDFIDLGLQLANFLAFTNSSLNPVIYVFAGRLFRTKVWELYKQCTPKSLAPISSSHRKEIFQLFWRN
Summary of the method: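 Radioligand competition on homogenates of CHO cells expressing cynomolgus BK1 receptor (50 to 250 μg protein/assay), incubated 60-180 minutes at ambient temperature with 0.5 to 5.0 nM [3H]kallidine (DesArg10,Leu9) plus increasing test compound. Filtration binding; non-specific defined with 1.0 μM kallidine (DesArg10); Ki from non-linear curve fitting.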

| SMILES | Ki [nM] |
| --- | --- |
| O=C(NC1(C(=O)NCc2ccc(Nc3ccc(OCC(F)F)cc3C(F)(F)F)cc2)CC1)c1cncnc1 [(118)] | 64 |
| O=C(NC1(C(=O)NCc2ccc(Nc3ccccc3C(F)(F)F)cn2)CC1)c1cncnc1 [(39)] | 5.5 |

The remaining lines, values ahead:

| Ki [nM] | SMILES |
| --- | --- |
| > 500 | N#Cc1cc(OC(F)(F)F)ccc1Nc1ccc(CNC(=O)C2(NC(=O)c3cncnc3)CC2)cc1 [(161)] |
| 33 | Cc1ncc(C(=O)N[C@@]2(C(=O)NCc3ncc(Nc4ccccc4C(F)(F)F)cc3C)CCOC2)cn1 [(366)] |
| 15 | Cc1ncc(C(=O)NC2(C(=O)NCc3ccc(Nc4ccc(Cl)cc4C(F)F)cn3)CC2)cn1 [(386)] |
| 7.2 | Cc1ncc(C(=O)N[C@@]2(C(=O)NCc3ncc(Nc4ccccc4C(F)(F)F)cc3Cl)CCOC2)cn1 [(292)] |
| 97 | O=C(N[C@@]1(C(=O)NCc2ccc(Nc3ccc(F)cc3C(F)(F)F)cn2)CCOC1)c1cnc2[nH]cnc2c1 [(159)] |
| 567 | O=C(N[C@@]1(C(=O)NCc2ccc(Nc3ccc(Cl)cc3C(F)(F)F)cc2)CCOC1)c1cncs1 [(336)] |
| 5.5 | Cc1ncc(C(=O)N[C@@]2(C(=O)NCc3ccc(Nc4ccccc4C(F)(F)F)cc3F)CCOC2)cn1 [(279)] |
| 51 | CNc1cncc(C(=O)NC2(C(=O)NCc3ccc(Nc4ccc(F)cc4C(F)(F)F)cn3)CC2)c1 [(270)] |

Same assay, conditions: at 10 μgmol/L; CHO cells expressing cynomolgus BK1-receptor, radioligand kallidine (DesArg10,Leu9)

| SMILES | inhibition at 10 µM [%] |
| --- | --- |
| O=C(N[C@@]1(C(=O)NCc2ccc(Nc3ccccc3C(F)(F)F)cc2)CCOC1)c1cnccn1 [(96)] | 78 |
| O=C(NC1(C(=O)NCc2ccc(Nc3ccc(OCC(F)F)cc3C(F)(F)F)cc2)CC1)c1cncnc1 [(118)] | 109 |
| O=C(N[C@@]1(C(=O)NCc2ccc(Nc3ccccc3C(F)(F)F)cc2)CCOC1)c1cnco1 [(85)] | 93 |
| O=C(N[C@@]1(C(=O)NCc2ccc(Nc3ccccc3C(F)(F)F)cc2)CCOC1)c1cc[nH]n1 [(106)] | 69 |
| O=C(NC1(C(=O)NCc2ccc(Nc3ccccc3C(F)(F)F)cc2)CC1)c1ccno1 [(24)] | 107 |
| O=C(NC1(C(=O)NCc2ccc(Nc3ccccc3C(F)(F)F)cn2)CC1)c1cncnc1 [(39)] | 110 |
| O=C(NC1(C(=O)NCc2ccc(Nc3ccccc3C(F)(F)F)cc2)CC1)c1ccccn1 [(21)] | 68 |

Other lines, results leading:

| inhibition at 10 µM [%] | SMILES |
| --- | --- |
| 69 | N#Cc1cc(OC(F)(F)F)ccc1Nc1ccc(CNC(=O)C2(NC(=O)c3cncnc3)CC2)cc1 [(161)] |
| 91 | O=C(N[C@@]1(C(=O)NCc2ccc(Nc3ccc(F)cc3C(F)(F)F)cn2)CCOC1)c1cnc2[nH]cnc2c1 [(159)] |

Reference: patent US20130131075A1, “NEW COMPOUNDS” (Boehringer Ingelheim International GmbH, priority 2009, published 2013)
